Measured values from US10081606B2, “Heteroaryl compounds and uses thereof” (Celgene CAR LLC, priority 2010, dated 2018).

Legend:
A431 cells (WT EGFR) = assay: Cell proliferation (CellTiter Glo, 72 hr), A431; assay type: cell-based; settings: Homo sapiens, A-431; A431 cells, 72 hr; read-out: WT EGFR GI50
Procedure: (§1) A431 human epidermoid carcinoma, H1975 human NSCLC and HCC827 human NSCLC adenocarcinoma cells were obtained from the American Type Culture Center (Manassas, Va.). A431 cells were grown in DMEM (Invitrogen, Carlsbad, Calif.) supplemented with 10% FBS (HyClone, South Logan, Utah) and 1% Penicillin-Streptomycin (P/S, Lonza, Walkersville, Md.).
(§2) Growth inhibition (GI50) values were determined by Graph Pad Prism.

[1] = system: H1975 cells (EGFR L858R/T790M); assay: Cell proliferation (CellTiter Glo, 72 hr), H1975; assay type: cell-based, human
Procedure: as §1, §2

EGFR T790M/L858R = EGFR T790M/L858R (Homo sapiens (Human), UniProt P00533, L858R/T790M); settings: MS analysis
WT EGFR (A431 cells) = WT EGFR (A431 cells) (Homo sapiens (Human), UniProt P00533); assay: EGFR signaling immunoblot (1 hr) in A431 cells; assay type: cell-based
Procedure: as §1
(§3) All primary antibodies were obtained from Cell Signaling (Danvers, Mass.) and used at 1:1000. Secondary antibodies were used at 1:10,000. Goat anti-mouse IgG IRDye 800CW antibody was obtained from LiCor Biosciences (Lincoln, Nebr.) and goat anti-rabbit IgG Alexa Fluor 680 was obtained from Invitrogen.
(§4) Cells were grown in 12-well plates (Corning, Coring, N.Y.) to 90% confluence and then incubated in low-serum (0.1% FBS) media for 16-18 hr. […] A431 cells were then stimulated with 50 ng/ml EGF (Peprotech, Rocky Hill, N.J.) for 15 min. After treatment, cell monolayers were washed with cold PBS (Invitrogen) and immediately lysed by scrapping into 60 uL cold Cell Extraction Buffer (Invitrogen) supplemented with Complete Protease inhibitors (Roche, Indianapolis, Ind.) and PhosphoSTOP (Roche) phosphatase inhibitors.
(§5) Phospho-protein signals were quantitated using Odyssey Infrared Imaging (Li-Cor Biosciences).
Blots were normalized as indicated above. […]

[2] = system: HCC827 cells (EGFR delE746-A750); assay: Cell proliferation (CellTiter Glo, 72 hr), HCC827; assay type: cell-based, human
Procedure: as §1, §2

[3] = target: EGFR L858R/T790M (H1975 cells) (Homo sapiens (Human), UniProt P00533, L858R/T790M); assay: EGFR signaling immunoblot (1 hr) in H1975 cells; assay type: cell-based
Procedure: as §1, §3, §4, §5
Blots were normalized as indicated above. […] Normalized data was fitted using a sigmoidal curve analysis program (Graph Pad Prism version 5) with variable Hill slope to determine the EC50 values.

In the case of `C=CC(=O)Nc1cccc(Oc2nc(Nc3ccc(OC)c(OC)c3OC)ncc2Cl)c1` [Compound I-7, N-(3-(5-chloro-2-(2,3,4-trimethoxyphenylamino)pyrimidin-4-yloxy)phenyl)acrylamide], the GI50 (A431 cells (WT EGFR)) was over 1000 nM, the GI50 ([1]; Homo sapiens, NCI-H1975, H1975 cells, 72 hr, read-out: H1975 GI50) was 100 to 500 nM and the “Ratio WT/mutant” value ([1]; proliferation GI50, WT (A431) vs H1975) was over 10. For the same molecule, the “covalent modification of EGFR T790M/L858R” value (EGFR T790M/L858R) was “covalently modify”, the “WT-EGFR sparing in A431 cells (pEGFR, pS6)” value (WT EGFR (A431 cells)) was “completely WT-EGFR sparing” and the GI50 ([2]; Homo sapiens, HCC827 cells, 72 hr, read-out: HCC827 GI50) was 100 to 500 nM. The “Ratio WT/mutant” value ([2]; proliferation GI50, WT (A431) vs HCC827) was over 15, the “inhibition of pEGFR and downstream S6 Ribosomal protein in H1975 cells” value ([3]; H1975 vs A431, FIG. 1 and 2) was “mutant selective” and the “Ratio WT/mutant” value ([3]; signaling EC50, WT (A431) vs H1975) was over 50.
